# According to patent US9975852B2, “Quinoline sulfonyl derivatives and uses thereof” (Health Sciences North Research Institute, priority 2013, dated 2018):
# What was measured:
# [1] = target: T1, Trypsin-like proteasome activity in HeLa S3 cell lysates (Homo sapiens, UniProt Q99436); assay: Proteasome activity assay, trypsin-like; type: biochemical; details: read-out: Inhibition (IC50) Trypsin-like
# T1 construct: proteasomes were extracted in 0.5% NP40 buffer; endogenous in cells; host or cells: HeLa S3
# Procedure: Exponentially growing HeLa S3 cells were plated on 96-well plates. After overnight incubation, the cells were treated with different concentrations of drugs for 6 hours or left untreated (control). At the end of 6 hours, proteasomes were extracted in 0.5% NP40 buffer, and equal amounts of samples were incubated with 25 μM of fluorogenic substrates purchased from Boston Biochem (Cambridge Mass.). (LRR-specific for trypsin-like activity, LLE-specific for caspase-like activity and SUVY-specific for chymotrypsin like activity) in black-bottom 96-well plates at 37° C. Fluorescence was monitored every 5 min at the wavelength of 360 nm (excitation) and 480 nm (emission). Chymotrypsin activity was also determined by a kit-based method (similar to described above) purchased from Caymen Biochem (Ann Arbor, Mich.), using a fluorogenic substrate specific for chymotrypsin activity.
# Analysis of proteasome activity in HeLa S3 cell lysates treated with various compounds (FIG. 10). VR-23 inhibits proteasome activity. 20S proteasome activity was inhibited by 1 μM VR-23. MG132 and EGCG, known proteasome inhibitors, were used as positive controls. The PC positive control is cell lysates prepared from Jurkat cells with a high proteasome activity. “Asynchr” denote asynchronous HeLa S3 cells grown in the absence of VR-23.
# [2] = tested on: HeLa S3 cells; assay: Confocal microscopy of spindle poles, centrosomes and cytoskeleton, HeLa S3 cells; type: cell-based
# Text: All immunocytochemistry experiments were visualized by confocal microscopy using a Zeiss 510 Meta laser scanning microscope (Carl Zeiss) equipped with a 63× objective lens, unless otherwise specified herein. Three lasers were utilized for excitation with the following band pass filter settings used for detection: Argon 488 nm (band pass 505-530), HeNe 543 nm (long pass 560) and 633 nm (long pass 650). All images were captured and analyzed using LSM 510 software included with the microscope (LSM Image Examiner™, Carl Zeiss).
# The synchronization at the G1/S border (more accurately at the beginning of S phase) was achieved by double thymidine block (DT). Briefly, exponentially growing cells are treated with 2.0 mM thymidine for 18 hours, followed by incubation for 11 hours in drug-free complete medium, by which time most cells are at mid-late G1 phase. The cells are then incubated for another 14 hours in 2.0 mM thymidine to arrest them at the G1/S border. To arrest cells at the G2/M phase, cells were maintained for 18 hours in complete medium containing nocodazole (50 ng/ml). Both these synchronization are reversible.
# VR-23 caused the formation of multiple spindle poles during late G1 phase in HeLa S3 cells (FIG. 9). HeLa S3 cells were synchronized at G2/M by nocodazole (50 ng/ml, 18 hours), followed by incubation for 6 hours in drug-free medium (at which time they were at G1) (see, e.g., FIG. 8). Cells were then incubated in the absence (control) or presence of 5 μM VR-23 for additional 6 hours (see flow cytometry profile in FIG. 8). […] Note the presence of uneven cell sizes (arrows) which may have been generated as a result of nondisjuctional chromosome segregation during mitosis.
# Exponentially growing HeLa S3 cells were treated with 5 μM VR-23 for 6 hours, fixed, stained with an antibody specific for α-tubulin and then examined by confocal fluorescent microscopy for changes to their cytoskeletal structure. Sham denotes that the sample was treated exactly the same as VR-23 sample, except that they were not exposed to VR-23. […] HeLa S3 cells were treated with 2 mM thymidine for 18 hours, followed by incubation for 11 hours in drug-free complete medium, by which time most cells were at mid-late G1 phase. The cells were then incubated for another 14 hours in 2.0 mM thymidine in the absence (control) or presence of 10 μM VR-23. Under these conditions, cells are trapped in the beginning of S phase by a second thymidine block. No centrosome was amplified in the control, while over 87% of VR-23 treated cells analyzed contained multiple centrosomes.
# HeLa S3 cells synchronized at the G1/S border by DT treatment were released into cell cycle for 1-6 hours in the absence (control) (FIG. 13A) or presence (FIG. 13B) of VR-23, followed by confocal microscopy. Centrosome amplification was manifested by 3 hour post-DT, although supernumerary started to form by 2 hour post-DT (solid arrows). (Due to experimental variations, centrosome amplification is not visible by 2 hours in all instances). […] More than 70% of cells exposed to VR-23 for 12 hours during S-G2/M contained multiple centrosomes, compared to less than 4% in the control. At least 200 cells were counted for each sample, and each experiment was repeated at least three times.
# HeLa S3 cells synchronized at G1/S by DT were released into normal medium for 6 hours (cells reached ˜G2/M), at which time they were exposed to VR-23 for additional 6 hours. Solid arrows denote spindle assembly complexes. […] Triple MTOC/Three-way-pull phenotype comprises usually more than 50-60% of the total population. The “No attachment” phenotype is usually observed when DNA is not completely condensed.
# [3] = VR-23 for 6 hours from 6 hours post-DT
smiles,measurement,setting,value
"O=[N+]([O-])c1ccc(S(=O)(=O)N2CCN(c3ccnc4cc(Cl)ccc34)CC2)c([N+](=O)[O-])c1 [Compound 1, 7-Chloro-4-(4-(2,4-dinitrophenylsulfonyl)piperazin-1-yl)quinoline]",IC50,[1],1 nM
same,Cells with multiple spindle phenotype,"[2]; 5 μM VR-23, 6 hours, late G1",44.4%
same,Cytoskeletal formation,"[2]; 5 μM VR-23 for 6 hours, α-tubulin staining",caused abnormal cytoskeletal formation
same,Cells containing multiple centrosomes,"[2]; 10 μM VR-23 during second thymidine block, 14 hours",over 87%
same,Number of cells with multiple centrosomes,[2]; 3 hours post DT,41 ± 11.8
same,Number of cells with multiple centrosomes,[2]; 6 hours post DT,55.2 ± 16.7
same,Number of cells with multiple centrosomes,[2]; 12 hours post DT,73.2 ± 1.0
same,Mitotic cells among 352 cells counted,[2]; [3],34.1%
same,Mitotic cells with abnormal chromosome segregation,[2]; [3],78.3%
same,"Triple MTOC/Three-way-pull phenotype, share of total population",[2]; [3],50-60%
same,Cells containing multiple centrosomes,[2]; exposed to VR-23 for 12 hours during S-G2/M,More than 70%
